Columns and labels:
Vero E6 [1] = assay: cell viability relative to DMSO; higher = less toxic; conditions: 72 h
HepG2 [2] = assay: as above; conditions: 72 h
Calu-3 [3] = assay: as above; conditions: 72 h
Caco-2 [4] = assay: as above; conditions: 72 h
U2OS [5] = assay: as above; conditions: 72 h
HepG2 [6] = assay: relative viability EC50 (midpoint between 100% and the lowest measured viability); higher = less toxic; conditions: 72 h
Calu-3 [7] = assay: as above; conditions: 72 h
U2OS [8] = assay: as above; conditions: 72 h
[9] = test system: A549-ACE2 infected with SARS-CoV-2; assay: SARS-CoV-2 infection rate relative to DMSO; higher = more infection; conditions: 24 h
[10] = test system: A549-ACE2 infected with SARS-CoV-2; assay: morphology score (similarity to uninfected cells); higher = more like uninfected cells; conditions: 24 h
A549-ACE2 [11] = assay: phospholipidosis EC50; higher = less potent phospholipidosis inducer
Vero E6 [12] = assay: drug sensitivity score (DSS) for viability; higher = more toxic; extreme values may be limits of the assay; conditions: 72 h
HepG2 [13] = assay: as above; conditions: 72 h
Calu-3 [14] = assay: as above; conditions: 72 h
Caco-2 [15] = assay: as above; conditions: 72 h
U2OS [16] = assay: as above; conditions: 72 h
[17] = test system: A549-ACE2 infected with SARS-CoV-2; assay: cell count relative to DMSO; higher = less toxic; conditions: 24 h
A549-ACE2 [18] = assay: drug-induced phospholipidosis relative to tamoxifen; higher = more phospholipidosis
Vero E6 [19] = assay: relative viability EC50 (midpoint between 100% and the lowest measured viability); higher = less toxic; conditions: 72 h

C[C@H](Oc1cc(-c2cnn(C3CCNCC3)c2)cnc1N)c1c(Cl)ccc(F)c1Cl [crizotinib-(S)]
Conditions	SARS-CoV-2 infection rate [%]	cell count [%]	cell viability [%]	morphology score	phospholipidosis EC50 [nM]
A549-ACE2 [11], 24 h	–	–	–	–	1790
A549-ACE2 [11], 48 h	–	–	–	–	3040
A549-ACE2 [11], 72 h	–	–	–	–	3100
Caco-2 [4], 1 nM	–	–	93.9	–	–
Caco-2 [4], 10 nM	–	–	95.3	–	–
Caco-2 [4], 100 nM	–	–	99.2	–	–
Caco-2 [4], 1000 nM	–	–	95.1	–	–
Caco-2 [4], 10000 nM	–	–	62.1	–	–
Calu-3 [3], 1 nM	–	–	97.8	–	–
Calu-3 [3], 10 nM	–	–	96.2	–	–
Calu-3 [3], 100 nM	–	–	100.3	–	–
Calu-3 [3], 1000 nM	–	–	100.4	–	–
Calu-3 [3], 10000 nM	–	–	40	–	–
HepG2 [2], 1 nM	–	–	100	–	–
HepG2 [2], 10 nM	–	–	108	–	–
HepG2 [2], 100 nM	–	–	104	–	–
HepG2 [2], 1000 nM	–	–	90.9	–	–
HepG2 [2], 10000 nM	–	–	43.3	–	–
U2OS [5], 1 nM	–	–	98.3	–	–
U2OS [5], 10 nM	–	–	96.3	–	–
U2OS [5], 100 nM	–	–	99.2	–	–
U2OS [5], 1000 nM	–	–	96	–	–
U2OS [5], 10000 nM	–	–	41.1	–	–
Vero E6 [1], 1 nM	–	–	97.2	–	–
Vero E6 [1], 10 nM	–	–	99.6	–	–
Vero E6 [1], 100 nM	–	–	100	–	–
Vero E6 [1], 1000 nM	–	–	97	–	–
Vero E6 [1], 10000 nM	–	–	80.7	–	–
[9], 0.1 µM	96	–	–	–	–
[9], 0.3 µM	100	–	–	–	–
[9], 1 µM	94	–	–	–	–
[9], 3 µM	30	–	–	–	–
[9], 10 µM	24	–	–	–	–
[9], 30 µM	82	–	–	–	–
[10], 0.1 µM	–	–	–	0.15	–
[10], 0.3 µM	–	–	–	0.025	–
[10], 1 µM	–	–	–	0.27	–
[10], 3 µM	–	–	–	0.71	–
[10], 10 µM	–	–	–	0.36	–
[10], 30 µM	–	–	–	-0.08	–
[17], 0.1 µM	–	100	–	–	–
[17], 0.3 µM	–	102	–	–	–
[17], 1 µM	–	87	–	–	–
[17], 3 µM	–	93	–	–	–
[17], 10 µM	–	109	–	–	–
[17], 30 µM	–	18	–	–	–

Conditions	drug sensitivity score	relative viability EC50 [nM]
Caco-2 [15]	2.6	–
Calu-3 [7]	–	3210
Calu-3 [14]	3.2	–
HepG2 [6]	–	2220
HepG2 [13]	4.45	–
U2OS [8]	–	2610
U2OS [16]	3.9	–
Vero E6 [12]	0.8	–

drug-induced phospholipidosis [%], A549-ACE2 [18]
Conditions	0.3 µM	0.833333 µM	3.33333 µM	6.66667 µM	10 µM	30 µM
24 h	8.27	14.6	93.6	107	67.9	67.2
48 h	6.57	10.9	65	95.4	72.5	79.1
72 h	6.4	9.01	64.9	97.9	71.4	94.9

NC1(c2ccc(-c3nc4ccn5c(=O)[nH]nc5c4cc3-c3ccccc3)cc2)CCC1 [MK-2206]
Conditions	SARS-CoV-2 infection rate [%]	cell count [%]	cell viability [%]	morphology score	phospholipidosis EC50 [nM]
A549-ACE2 [11], 24 h	–	–	–	–	3240
A549-ACE2 [11], 48 h	–	–	–	–	3440
Caco-2 [4], 1 nM	–	–	102	–	–
Caco-2 [4], 10 nM	–	–	95.3	–	–
Caco-2 [4], 100 nM	–	–	87.1	–	–
Caco-2 [4], 1000 nM	–	–	75	–	–
Caco-2 [4], 10000 nM	–	–	66.2	–	–
Calu-3 [3], 1 nM	–	–	104	–	–
Calu-3 [3], 10 nM	–	–	100	–	–
Calu-3 [3], 100 nM	–	–	84.1	–	–
Calu-3 [3], 1000 nM	–	–	63	–	–
Calu-3 [3], 10000 nM	–	–	38	–	–
HepG2 [2], 1 nM	–	–	95.6	–	–
HepG2 [2], 10 nM	–	–	93.7	–	–
HepG2 [2], 100 nM	–	–	84.8	–	–
HepG2 [2], 1000 nM	–	–	66.1	–	–
HepG2 [2], 10000 nM	–	–	59	–	–
U2OS [5], 1 nM	–	–	104	–	–
U2OS [5], 10 nM	–	–	103	–	–
U2OS [5], 100 nM	–	–	96.9	–	–
U2OS [5], 1000 nM	–	–	89	–	–
U2OS [5], 10000 nM	–	–	67.8	–	–
Vero E6 [1], 1 nM	–	–	94	–	–
Vero E6 [1], 10 nM	–	–	94.7	–	–
Vero E6 [1], 100 nM	–	–	93.4	–	–
Vero E6 [1], 1000 nM	–	–	81	–	–
Vero E6 [1], 10000 nM	–	–	63.2	–	–
[9], 0.1 µM	105	–	–	–	–
[9], 0.3 µM	101	–	–	–	–
[9], 1 µM	97	–	–	–	–
[9], 3 µM	29	–	–	–	–
[10], 0.1 µM	–	–	–	0.19	–
[10], 0.3 µM	–	–	–	0.27	–
[10], 1 µM	–	–	–	0.31	–
[10], 3 µM	–	–	–	0.79	–
[17], 0.1 µM	–	100	–	–	–
[17], 0.3 µM	–	99	–	–	–
[17], 1 µM	–	85	–	–	–
[17], 3 µM	–	103	–	–	–

Conditions	drug sensitivity score	relative viability EC50 [nM]
Caco-2 [15]	5.4	–
Calu-3 [7]	–	490
Calu-3 [14]	8.7	–
HepG2 [13]	7.6	–
U2OS [16]	2.7	–
Vero E6 [12]	3.9	–

drug-induced phospholipidosis [%], A549-ACE2 [18]
Conditions	0.3 µM	0.833333 µM	3.33333 µM	6.66667 µM	10 µM	30 µM
24 h	3.85	16.3	76	128	149	82.1
48 h	2.41	16.9	89	158	169	–
72 h	0.889	14.8	66.8	–	–	–

CCN(CC)CCO[C@H]1CC[C@@]2(C)C(=CC[C@@H]3[C@@H]2CC[C@]2(C)C(=O)CC[C@@H]32)C1
Conditions	SARS-CoV-2 infection rate [%]	cell count [%]	cell viability [%]	morphology score	phospholipidosis EC50 [nM]
A549-ACE2 [11], 24 h	–	–	–	–	935
A549-ACE2 [11], 48 h	–	–	–	–	1040
A549-ACE2 [11], 72 h	–	–	–	–	2250
Caco-2 [4], 1 nM	–	–	92	–	–
Caco-2 [4], 10 nM	–	–	92.6	–	–
Caco-2 [4], 100 nM	–	–	97.2	–	–
Caco-2 [4], 1000 nM	–	–	88.4	–	–
Caco-2 [4], 10000 nM	–	–	51.2	–	–
Calu-3 [3], 1 nM	–	–	98	–	–
Calu-3 [3], 10 nM	–	–	103	–	–
Calu-3 [3], 100 nM	–	–	107	–	–
Calu-3 [3], 1000 nM	–	–	79.4	–	–
Calu-3 [3], 10000 nM	–	–	18.5	–	–
HepG2 [2], 1 nM	–	–	101	–	–
HepG2 [2], 10 nM	–	–	93.8	–	–
HepG2 [2], 100 nM	–	–	85.3	–	–
HepG2 [2], 1000 nM	–	–	84.5	–	–
HepG2 [2], 10000 nM	–	–	33.5	–	–
U2OS [5], 1 nM	–	–	99.4	–	–
U2OS [5], 10 nM	–	–	98.4	–	–
U2OS [5], 100 nM	–	–	99.7	–	–
U2OS [5], 1000 nM	–	–	84.9	–	–
U2OS [5], 10000 nM	–	–	78.6	–	–
Vero E6 [1], 1 nM	–	–	93.9	–	–
Vero E6 [1], 10 nM	–	–	104	–	–
Vero E6 [1], 100 nM	–	–	89.3	–	–
Vero E6 [1], 1000 nM	–	–	92.3	–	–
Vero E6 [1], 10000 nM	–	–	24.6	–	–
[9], 0.1 µM	108	–	–	–	–
[9], 0.3 µM	93	–	–	–	–
[9], 1 µM	81	–	–	–	–
[9], 3 µM	29	–	–	–	–
[10], 0.1 µM	–	–	–	-0.31	–
[10], 0.3 µM	–	–	–	0.19	–
[10], 1 µM	–	–	–	0.41	–
[10], 3 µM	–	–	–	0.69	–
[17], 0.1 µM	–	96	–	–	–
[17], 0.3 µM	–	105	–	–	–
[17], 1 µM	–	114	–	–	–
[17], 3 µM	–	117	–	–	–

Conditions	drug sensitivity score	relative viability EC50 [nM]
Caco-2 [15]	4.4	–
Calu-3 [7]	–	1540
Calu-3 [14]	7.7	–
HepG2 [6]	–	1720
HepG2 [13]	5.8	–
U2OS [8]	–	> 10000
U2OS [16]	2.2	–
Vero E6 [12]	5.4	–
Vero E6 [19]	–	2320

drug-induced phospholipidosis [%], A549-ACE2 [18]
Conditions	0.3 µM	0.833333 µM	3.33333 µM	6.66667 µM	10 µM	30 µM
24 h	6.72	34.6	112	114	104	86.8
48 h	7.14	19.8	111	116	106	90
72 h	6.02	13.4	95.4	125	115	–
